In assay [1] the test system is A. baumannii YQ4. Kind of assay: ATP leakage assay. Type of assay: cell-based, Acinetobacter baumannii. The settings on record: 1×MIC, 30 min.
Experimental: ATP leakage assay was performed using the Enhanced ATP Assay Kit of Beyotime (S0027) according to the manufacturer's manual. Briefly, the log-phase culture of A. baumannii YQ4 was prepared, washed and suspended in PBS as above. This suspension was exposed to 16 μg/ml COG1410, 16 μg/ml polymyxin B and 32 μg/ml tigecycline, respectively and incubated at 37° C. for 30 min. The supernatant was harvested and used for measurement of ATP levels. 100 μl of supernatant was mixed with 100 μl working solution and the chemiluminescence was measured by Biotek Synergy H1 plate reader. Untreated sample was set as negative control. The experiments were performed in triplicate.
The subject of assay [2] is A. baumannii YQ4. The settings on record: COG1410 combined with polymyxin B. As to the method:
The checkerboard method was performed to determine the fractional inhibitory concentration (FIC) index between COG1410 and other antimicrobials. Two-fold serial dilutions of antimicrobials and COG1410 were conducted and mixed in the 96-well plate. […] The experiments were conducted twice independently.

In assay [3] the test system is pan-drug resistant (PDR) Acinetobacter baumannii YQ4. The settings on record: A. baumannii YQ4, LB broth.
The test system of the next assay is PDR A. baumannii YQ4. Kind of assay: Dynamic time-kill assay in PBS. The settings on record: 30 min.
The subject of a further assay is A. baumanii YQ4. Put plainly: Induction of resistance through serial passage. The settings on record: after 55 passages at sub-MIC.
A further assay has as its system A. baumannii. The settings on record: cited from earlier work.
The next assay deals with E. coli. Type of assay: cell-based.
For the next assay, the system named is L. salivarius. Type of assay: cell-based. As to the method:
(§1) Briefly, P. gingivalis is grown under anaerobic conditions to mid-log phase as per Dominy et al. […] The microtiter plate method outlined by Jansen (ibid) was used to measure MICs. Compounds and bacteria are added to wells of a microtiter plate and grown anaerobically (P. gingivalis) or with CO2 (L. salivarius) for 24 to 72 hours. Growth is measured with light scattering at 592 nm on a plate reader and absorbance plotted against μg/ml of drug in each well.

Another assay relates to P. gingivalis. Type of assay: cell-based. As to the method:
as §1

Values after ≈ are worked out from the molar mass of the structure shown. Read-outs that look alike come from different tables or passages of the source. Non-standard residues stand in square brackets, D forms with d. Residues, ends and D or L forms follow the SMILES beside them. Aib = CC(C)(N)C(=O)O

Experimental for A. baumanii YQ4: The initial concentration of the tested compounds was set up as 1/32×MIC and doubled every 10 passages. The 1 ml of bacterial culture was stored in 10% sterile glycerol at −80° C. every 5 passages. The MIC value of collected cultures and original strains were measured through the micro-dilution method.
Experimental for PDR A. baumannii YQ4: For dynamic time-kill assay, the overnight culture of A. baumannii YQ4 was transferred to fresh broth with initial OD600 0.01 and grown to the logarithmic phase. 1 ml culture was harvested, washed twice with 1× phosphate-buffered saline (PBS, pH7.4), containing 8 mM NaH2PO4, 2 mM KH2PO4, 2.6 mM KCl, 136 mM NaCl), and finally suspended in 1 ml PBS with OD600 0.5, which approximately corresponds to 1×10^8 CFU/ml. […] 100 μl aliquot was respectively taken at 0, 5, 10 and 30 min, serially diluted in PBS and plated on LB agar. The CFUs were counted after incubation at 37° C. for 18 h. […] Three independent experiments were performed.

On to polymyxin B [reference compound], for which the ATP leakage entry in the assay with A. baumannii YQ4 [1] is listed as “released more ATP compared to untreated cells”. In the assay on A. baumannii YQ4 [2], the “working concentration in the combination” value is 1 µg/mL. In assay [3], this compound returned a minimal inhibitory concentration (MIC) of 16 µg/mL. Moreover, the entries for the “reduction in CFU” value with PDR A. baumannii YQ4 (1×MIC) and with PDR A. baumannii YQ4 (5×MIC) were 2 log and 4 logs, respectively. The “increase of MIC” value with A. baumanii YQ4 came out at 64 fold.

With SAAP-148, the results for the LC99.9 in the assay with A. baumannii (50% pooled plasma) and with A. baumannii (PBS) were 12.8 UM and 1.6 µM, respectively.

Consider `CC(=O)N[C@@H](CC(C)C)C(=O)N[C@@H](CCCNC(=N)N)C(=O)N[C@H](C(=O)N[C@@H](CCCNC(=N)N)C(=O)N[C@@H](CC(C)C)C(=O)N[C@@H](C)C(=O)N[C@@H](CO)C(=O)NC(C)(C)C(=O)N[C@@H](CC(C)C)C(=O)N[C@@H](CCCCN)C(=O)N[C@@H](CCCCN)C(=O)N[C@@H](CC(C)C)C(=O)NC(C)(C)C(=O)N[C@@H](CCCCN)C(=O)N[C@@H](CCCNC(=N)N)C(=O)N[C@@H](CC(C)C)C(=O)N[C@@H](CC(C)C)C(N)=O)C(C)C` [SEQ ID NO: 9, Acetyl-LRVRLAS-aib-LKKL-aib-KRLL-Amide] (Ac-LRVRLAS[Aib]LKKL[Aib]KRLL-NH2), for which the “MIC E. coli” value in the assay with E. coli came out at 4 µg/mL (≈ 1.98 µM). Further, the “MIC L. salivarius” value against L. salivarius was 4 µg/mL (≈ 1.98 µM). Further, in the assay on P. gingivalis, the “MIC P. gingivalis” value was 8 µg/mL (≈ 3.96 µM).

Broadly, the MIC is the lowest concentration that inhibits growth of the organism.

The record behind these values is patent publication US20260007717A1, “ANTIMICROBIAL PEPTIDE COMPOUNDS AND METHODS OF USE” (priority 2022, published 2026).
